Results on 24 compounds are retold here after US10888550B2, “Pyrazole derivatives as MALT1 inhibitors” (Janssen Pharmaceutica NV, priority 2018, dated 2021).

The target in assay [1] is full-length MALT1 protein (Strep-MALT1(1-824)-His) (Homo sapiens (Human), UniProt Q9UDY8). The experiment in a line: MALT1 Biochemical Protease Assay. The following applies: read-out: MALT1_Biochemical activity (Ac-LRSR-amc) IC50; 10 nM FL MALT1, 200 μM Ac-LRSR-AMC, 50 min pre-incubation, 4 h at RT. The source says: From this an ICso value (inhibitory concentration causing 50% inhibition) can be obtained.
full-length MALT1 protein (Strep-MALT1(1-824)-His), sequence (Q9UDY8 whole entry): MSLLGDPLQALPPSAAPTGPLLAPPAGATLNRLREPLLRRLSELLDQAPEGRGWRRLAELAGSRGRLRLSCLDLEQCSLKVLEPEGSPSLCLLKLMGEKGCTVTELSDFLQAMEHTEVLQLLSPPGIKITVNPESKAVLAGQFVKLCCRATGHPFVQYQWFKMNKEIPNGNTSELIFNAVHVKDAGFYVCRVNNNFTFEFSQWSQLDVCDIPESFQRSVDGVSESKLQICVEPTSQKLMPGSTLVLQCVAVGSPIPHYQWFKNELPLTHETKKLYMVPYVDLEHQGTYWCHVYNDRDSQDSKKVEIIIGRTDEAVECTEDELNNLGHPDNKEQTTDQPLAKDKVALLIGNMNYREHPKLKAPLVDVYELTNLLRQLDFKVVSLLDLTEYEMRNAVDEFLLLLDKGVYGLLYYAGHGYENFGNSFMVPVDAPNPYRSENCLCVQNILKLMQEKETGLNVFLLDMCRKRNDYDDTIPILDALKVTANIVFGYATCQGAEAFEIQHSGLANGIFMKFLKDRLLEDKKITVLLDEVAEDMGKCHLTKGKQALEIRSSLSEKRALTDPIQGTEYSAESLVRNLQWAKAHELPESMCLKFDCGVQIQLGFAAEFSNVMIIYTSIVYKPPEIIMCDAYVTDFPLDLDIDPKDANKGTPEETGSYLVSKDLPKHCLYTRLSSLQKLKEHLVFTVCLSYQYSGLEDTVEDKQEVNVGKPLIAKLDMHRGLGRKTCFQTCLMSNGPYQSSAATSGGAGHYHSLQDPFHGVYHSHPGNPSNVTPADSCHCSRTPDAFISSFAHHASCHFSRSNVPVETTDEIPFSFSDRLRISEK

Assay [2] deals with IL6 secretion, OCI-LY3 cells. The experiment in a line: Human IL6 Mesoscale assay (OCI-LY3). The following applies: 24 h incubation. The class given is cell-based.
In assay [3] the test system is IL10 secretion, OCI-LY3 cells. Description: Human IL10 Mesoscale assay (OCI-LY3). The class given is cell-based. Particulars: 24 h incubation.

Usually IC50 stands for the concentration needed to halve the response being measured.

As to `CO[C@@H](C)c1ncc(NC(=O)c2cnn(-c3ccc(F)c4nccn34)c2C(F)(F)F)cc1Cl` (single isomer, unassigned) [Cpd 17, (*S)—N-(5-chloro-6-(1-methoxyethyl)pyridin-3-yl)-1-(8-fluoroimidazo[1,2-a]pyridin-5-yl)-5-(trifluoromethyl)-1H-pyrazole-4-carboxamide], the concentration for half-maximal inhibition (IC50) in assay [1] is 2340 nM.
As to `CO[C@@H](C)c1ncc(NC(=O)c2cnn(-c3ccc(Cl)n4nccc34)c2C(F)(F)F)cc1Cl` (single isomer, unassigned) [Cpd 27, (*S)—N-(5-chloro-6-(1-methoxyethyl)pyridin-3-yl)-1-(7-chloropyrazolo[1,5-a]pyridin-4-yl)-5-(trifluoromethyl)-1H-pyrazole-4-carboxamide], the IC50 in assay [1] was found to be 1020 nM.
Take `CS(C)(=O)=Nc1ncc(NC(=O)c2cnn(-c3ccc(F)c4nccn34)c2C(F)(F)F)cc1C(F)(F)F` [Cpd 30, N-(6-((dimethyl(oxo)-λ^6-sulfanylidene)amino)-5-(trifluoromethyl)pyridin-3-yl)-1-(8-fluoroimidazo[1,2-a]pyridin-5-yl)-5-(trifluoromethyl)-1H-pyrazole-4-carboxamide]: the IC50 in assay [1] was 830 nM.
Consider `O=C(Nc1cnc(-n2nccn2)c(Cl)c1)c1cnn(-c2ccc(Cl)n3nccc23)c1C(F)(F)F` [Cpd 15, N-(5-chloro-6-(2H-1,2,3-triazol-2-yl)pyridin-3-yl)-1-(7-chloropyrazolo[1,5-a]pyridin-4-yl)-5-(trifluoromethyl)-1H-pyrazole-4-carboxamide], for which the IC50 amounted to 33 nM in assay [1], 47 nM in assay [2] and 31 nM in assay [3].
On to `CS(C)(=O)=Nc1ncc(NC(=O)c2cnn(-c3ccc(F)c4nccn34)c2C(F)(F)F)cc1F` [Cpd 32, N-(6-((dimethyl(oxo)-λ^6-sulfanylidene)amino)-5-fluoropyridin-3-yl)-1-(8-fluoroimidazo[1,2-a]pyridin-5-yl)-5-(trifluoromethyl)-1H-pyrazole-4-carboxamide], for which the IC50 in assay [1] was 8130 nM.
In the case of `CO[C@H](C)c1ncc(NC(=O)c2cnn(-c3ccc(Cl)n4nccc34)c2C(F)(F)F)cc1Cl` (single isomer, unassigned) [Cpd 28, (*R)—N-(5-chloro-6-(1-methoxyethyl)pyridin-3-yl)-1-(7-chloropyrazolo[1,5-a]pyridin-4-yl)-5-(trifluoromethyl)-1H-pyrazole-4-carboxamide], in assay [1], the IC50 came to 1320 nM.
As for `NC(=O)c1ccc(-n2ncc(C(=O)Nc3cnc(-n4nccn4)c(Cl)c3)c2C(F)(F)F)n2ccnc12` [Cpd 1, 5-(4-((5-chloro-6-(2H-1,2,3-triazol-2-yl)pyridin-3-yl)carbamoyl)-5-(trifluoromethyl)-1H-pyrazol-1-yl)imidazo[1,2-a]pyridine-8-carboxamide], the IC50 in assay [1] was found to be 49 nM; in assay [2] it was 91 nM; in assay [3] it was 87 nM.
As for `Cc1cnc(-c2ncc(NC(=O)c3cnn(-c4ccc(F)c5nccn45)c3C(F)(F)F)cc2Cl)o1` [Cpd 9, N-(5-chloro-6-(5-methyloxazol-2-yl)pyridin-3-yl)-1-(8-fluoroimidazo[1,2-a]pyridin-5-yl)-5-(trifluoromethyl)-1H-pyrazole-4-carboxamide], the IC50 in assay [1] turned out to be 81 nM; in assay [2], 240 nM; in assay [3], 129 nM.
Regarding `CO[C@H](C)c1ncc(NC(=O)c2cnn(-c3ccc(C#N)n4nccc34)c2C(F)(F)F)cc1Cl` (single isomer, unassigned) [Cpd 26, (*R)—N-(5-chloro-6-(1-methoxyethyl)pyridin-3-yl)-1-(7-cyanopyrazolo[1,5-a]pyridin-4-yl)-5-(trifluoromethyl)-1H-pyrazole-4-carboxamide], in assay [1], the IC50 turned out to be 562 nM.
Regarding `O=C(Nc1cnc(-n2nccn2)c(C(F)(F)F)c1)c1cnn(-c2ccc(F)c3nccn23)c1C(F)(F)F` [Cpd 4, N-(6-(2H-1,2,3-triazol-2-yl)-5-(trifluoromethyl)pyridin-3-yl)-1-(8-fluoroimidazo[1,2-a]pyridin-5-yl)-5-(trifluoromethyl)-1H-pyrazole-4-carboxamide], the IC50 in assay [1] turned out to be 50 nM; in assay [2] it was 47 nM; in assay [3], 31 nM.
With `CO[C@@H](C)c1ncc(NC(=O)c2cnn(-c3ccc(C#N)n4nccc34)c2C(F)(F)F)cc1Cl` (single isomer, unassigned) [Cpd 25, (*S)—N-(5-chloro-6-(1-methoxyethyl)pyridin-3-yl)-1-(7-cyanopyrazolo[1,5-a]pyridin-4-yl)-5-(trifluoromethyl)-1H-pyrazole-4-carboxamide], the IC50 in assay [1] came out at 457 nM.
`CS(=O)(=O)c1c(C(=O)Nc2cnc(-n3nccn3)c(Cl)c2)cnn1-c1ccc(F)c2nccn12` [Cpd 8, N-(5-chloro-6-(2H-1,2,3-triazol-2-yl)pyridin-3-yl)-1-(8-fluoroimidazo[1,2-a]pyridin-5-yl)-5-(methylsulfonyl)-1H-pyrazole-4-carboxamide]: the IC50 in assay [1] was 457 nM.
In the case of `N#Cc1ccc(-n2ncc(C(=O)Nc3cnc(-n4nccn4)c(Cl)c3)c2C(F)(F)F)c2ccnn12` [Cpd 13, N-(5-chloro-6-(2H-1,2,3-triazol-2-yl)pyridin-3-yl)-1-(7-cyanopyrazolo[1,5-a]pyridin-4-yl)-5-(trifluoromethyl)-1H-pyrazole-4-carboxamide], the IC50 in assay [1] is 19 nM; in assay [2], 22 nM; in assay [3], 19 nM.
As to `CS(=O)(=O)c1ncc(NC(=O)c2cnn(-c3ccc(F)c4nccn34)c2C(F)(F)F)cc1C(F)(F)F` [Cpd 5, 1-(8-fluoroimidazo[1,2-a]pyridin-5-yl)-N-(6-(methylsulfonyl)-5-(trifluoromethyl)pyridin-3-yl)-5-(trifluoromethyl)-1H-pyrazole-4-carboxamide], the IC50 in assay [1] is 372 nM; in assay [2] it was 281 nM; in assay [3], 371 nM.
Take `NC(=O)c1ccc(-n2ncc(C(=O)Nc3cnc(-n4nccn4)c(Cl)c3)c2C(F)(F)F)c2ccnn12` [Cpd 16, 4-(4-((5-chloro-6-(2H-1,2,3-triazol-2-yl)pyridin-3-yl)carbamoyl)-5-(trifluoromethyl)-1H-pyrazol-1-yl)pyrazolo[1,5-a]pyridine-7-carboxamide]: the IC50 came out at 25 nM in assay [1], 42 nM in assay [2] and 41 nM in assay [3].
As to `O=C(Nc1cnc([C@H]2CCCO2)c(Cl)c1)c1cnn(-c2ccc(Cl)c3nccn23)c1C(F)(F)F` (single isomer, unassigned) [Cpd 18, (*R)—N-(5-chloro-6-(tetrahydrofuran-2-yl)pyridin-3-yl)-1-(8-chloroimidazo[1,2-a]pyridin-5-yl)-5-(trifluoromethyl)-1H-pyrazole-4-carboxamide], the IC50 in assay [1] amounted to 2190 nM.
On to `N#Cc1ccc(-n2ncc(C(=O)Nc3cnc(-n4nccn4)c(Cl)c3)c2C(F)(F)F)n2ccnc12` [Cpd 2, N-(5-chloro-6-(2H-1,2,3-triazol-2-yl)pyridin-3-yl)-1-(8-cyanoimidazo[1,2-a]pyridin-5-yl)-5-(trifluoromethyl)-1H-pyrazole-4-carboxamide], for which the IC50 in assay [1] came out at 38 nM; in assay [2] it was 83 nM; in assay [3] it was 47 nM.
On to `O=C(Nc1cnc([C@H]2CCCO2)c(Cl)c1)c1cnn(-c2ccc(Cl)n3nccc23)c1C(F)(F)F` (single isomer, unassigned) [Cpd 22, (*R)—N-(5-chloro-6-(tetrahydrofuran-2-yl)pyridin-3-yl)-1-(7-chloropyrazolo[1,5-a]pyridin-4-yl)-5-(trifluoromethyl)-1H-pyrazole-4-carboxamide], for which, in assay [1], the IC50 came out at 977 nM.
In the case of `O=C(Nc1cnc([C@@H]2CCCO2)c(Cl)c1)c1cnn(-c2ccc(Cl)c3nccn23)c1C(F)(F)F` (single isomer, unassigned) [Cpd 20, (*S)—N-(5-chloro-6-(tetrahydrofuran-2-yl)pyridin-3-yl)-1-(8-chloroimidazo[1,2-a]pyridin-5-yl)-5-(trifluoromethyl)-1H-pyrazole-4-carboxamide], the IC50 in assay [1] turned out to be 355 nM.
As to `Cc1cc(NC(=O)c2cnn(-c3ccc(F)c4nccn34)c2C(F)(F)F)cnc1N=S(C)(C)=O` [Cpd 29, N-(6-((dimethyl(oxo)-λ^6-sulfanylidene)amino)-5-methylpyridin-3-yl)-1-(8-fluoroimidazo[1,2-a]pyridin-5-yl)-5-(trifluoromethyl)-1H-pyrazole-4-carboxamide], the IC50 in assay [1] was 6000 nM.
As for `CS(=N)(=O)c1ncc(NC(=O)c2cnn(-c3ccc(F)c4nccn34)c2C(F)(F)F)cc1C(F)(F)F` (stereo not shown) [Cpd 31, 1-(8-fluoroimidazo[1,2-a]pyridin-5-yl)-N-(6-(S-methylsulfonimidoyl)-5-(trifluoromethyl)pyridin-3-yl)-5-(trifluoromethyl)-1H-pyrazole-4-carboxamide], the IC50 in assay [1] is 3160 nM.
The same measure, in the same setting: as for `N#Cc1ccc(-n2ncc(C(=O)Nc3cnc([C@H]4CCCO4)c(Cl)c3)c2C(F)(F)F)c2ccnn12` (single isomer, unassigned) [Cpd 24, (*R)—N-(5-chloro-6-(tetrahydrofuran-2-yl)pyridin-3-yl)-1-(7-cyanopyrazolo[1,5-a]pyridin-4-yl)-5-(trifluoromethyl)-1H-pyrazole-4-carboxamide], the figure is 251 nM; as for `CS(C)(=O)=Nc1ncc(NC(=O)c2cnn(-c3ccc(F)c4nccn34)c2C(F)(F)F)cc1Cl` [Cpd 33, N-(5-chloro-6-((dimethyl(oxo)-λ^6-sulfanylidene)amino)pyridin-3-yl)-1-(8-fluoroimidazo[1,2-a]pyridin-5-yl)-5-(trifluoromethyl)-1H-pyrazole-4-carboxamide], 980 nM.
As for `CO[C@H](C)c1ncc(NC(=O)c2cnn(-c3ccc(F)c4nccn34)c2C(F)(F)F)cc1Cl` (single isomer, unassigned) [Cpd 19, (*R)—N-(5-chloro-6-(1-methoxyethyl)pyridin-3-yl)-1-(8-fluoroimidazo[1,2-a]pyridin-5-yl)-5-(trifluoromethyl)-1H-pyrazole-4-carboxamide], in assay [1], the IC50 stood at 2820 nM.
